Common to all, as to assay type: cell-based
Assay [1] concerns the target T1, hTLR7 (Homo sapiens, UniProt Q9NYK1).
T1 construct: plasmids (pcDNA3.1 constructs) coding for full length hTLR2, hTLR7, hTLR8 and hTLR9; expressed in transfected cells; host or cells: 293T cells
T1 sequence (Q9NYK1 27-1049): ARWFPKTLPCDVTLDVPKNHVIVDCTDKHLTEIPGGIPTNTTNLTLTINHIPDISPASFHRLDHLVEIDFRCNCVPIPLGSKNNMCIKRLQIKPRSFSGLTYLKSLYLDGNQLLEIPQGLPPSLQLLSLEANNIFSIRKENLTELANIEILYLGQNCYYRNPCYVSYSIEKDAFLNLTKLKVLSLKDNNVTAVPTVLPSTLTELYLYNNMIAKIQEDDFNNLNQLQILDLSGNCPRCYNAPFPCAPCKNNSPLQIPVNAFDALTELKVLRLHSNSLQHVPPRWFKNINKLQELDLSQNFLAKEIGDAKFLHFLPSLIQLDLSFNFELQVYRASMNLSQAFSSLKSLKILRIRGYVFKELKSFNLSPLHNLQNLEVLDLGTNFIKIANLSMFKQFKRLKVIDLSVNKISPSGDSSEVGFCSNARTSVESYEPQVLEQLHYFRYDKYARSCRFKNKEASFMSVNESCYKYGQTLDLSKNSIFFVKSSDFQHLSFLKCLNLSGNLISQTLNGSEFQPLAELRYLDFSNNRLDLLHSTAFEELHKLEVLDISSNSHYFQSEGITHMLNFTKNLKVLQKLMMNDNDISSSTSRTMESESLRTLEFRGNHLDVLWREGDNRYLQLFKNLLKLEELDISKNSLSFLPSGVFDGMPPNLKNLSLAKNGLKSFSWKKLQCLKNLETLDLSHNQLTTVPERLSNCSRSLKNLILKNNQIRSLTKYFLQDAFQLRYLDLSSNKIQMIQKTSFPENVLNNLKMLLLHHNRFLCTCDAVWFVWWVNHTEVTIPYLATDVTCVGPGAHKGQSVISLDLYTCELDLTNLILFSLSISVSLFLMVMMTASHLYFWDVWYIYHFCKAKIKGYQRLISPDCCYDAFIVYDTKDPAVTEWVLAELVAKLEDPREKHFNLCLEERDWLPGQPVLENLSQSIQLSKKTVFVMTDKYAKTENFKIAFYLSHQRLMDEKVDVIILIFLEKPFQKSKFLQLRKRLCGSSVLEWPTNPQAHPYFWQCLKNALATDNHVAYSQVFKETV
The experiment in a line: IL-8 production in 293 fibroblasts transiently expressing hTLR7. As to conditions: CpG-ODN 2 μM, LPS 100 ng/ml. Here is the method:
(§1) The cloned human TLR7 and human TLR8 cDNA were cloned into the expression vector pCDNA3. 1 (−) from Invitrogen using the NotI site. Utilizing a “gain of function” assay, hTLR7 and hTLR8 expression vectors were transiently expressed in human 293 fibroblasts (ATCC, CRL-1573) using the calcium phosphate method. Activation was monitored by IL-8 production after stimulus with CpG-ODN (2006 or 1668, 2 μM) or LPS (100 ng/ml).

The target in assay [2] is T2, hTLR8 (Homo sapiens, UniProt Q9NR97).
T2 construct: plasmids (pcDNA3.1 constructs) coding for full length hTLR2, hTLR7, hTLR8 and hTLR9; expressed in transfected cells; host or cells: 293T cells
T2 sequence (Q9NR97 27-1041): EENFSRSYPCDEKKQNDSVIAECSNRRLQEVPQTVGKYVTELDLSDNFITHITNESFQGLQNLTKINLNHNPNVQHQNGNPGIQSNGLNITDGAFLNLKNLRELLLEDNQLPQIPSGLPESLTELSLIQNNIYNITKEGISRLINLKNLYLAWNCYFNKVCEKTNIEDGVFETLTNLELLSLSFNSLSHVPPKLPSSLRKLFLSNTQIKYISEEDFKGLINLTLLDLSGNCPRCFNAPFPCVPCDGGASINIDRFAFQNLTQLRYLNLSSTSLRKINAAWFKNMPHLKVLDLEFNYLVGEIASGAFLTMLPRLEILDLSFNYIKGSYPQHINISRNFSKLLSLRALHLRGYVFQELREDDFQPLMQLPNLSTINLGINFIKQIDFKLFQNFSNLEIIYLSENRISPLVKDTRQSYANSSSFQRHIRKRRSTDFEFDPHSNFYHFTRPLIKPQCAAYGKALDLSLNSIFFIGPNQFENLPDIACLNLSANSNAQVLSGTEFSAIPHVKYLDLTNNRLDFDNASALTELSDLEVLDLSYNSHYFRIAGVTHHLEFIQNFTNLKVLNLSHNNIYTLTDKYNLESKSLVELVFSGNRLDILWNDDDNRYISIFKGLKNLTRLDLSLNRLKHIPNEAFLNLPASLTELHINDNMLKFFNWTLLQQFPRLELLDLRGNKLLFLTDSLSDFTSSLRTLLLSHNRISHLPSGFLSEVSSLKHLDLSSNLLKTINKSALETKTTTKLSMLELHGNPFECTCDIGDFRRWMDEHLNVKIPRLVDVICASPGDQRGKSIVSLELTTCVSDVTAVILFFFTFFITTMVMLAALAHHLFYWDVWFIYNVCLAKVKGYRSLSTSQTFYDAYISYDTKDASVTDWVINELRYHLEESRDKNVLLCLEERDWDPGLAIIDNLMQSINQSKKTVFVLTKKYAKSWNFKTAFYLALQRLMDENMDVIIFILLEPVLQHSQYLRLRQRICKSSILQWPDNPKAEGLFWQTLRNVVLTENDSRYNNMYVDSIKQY
Kind of assay: IL-8 production in 293 fibroblasts transiently expressing hTLR8. As to conditions: CpG-ODN 2 μM, LPS 100 ng/ml. How it is done: as §1

For assay [3], the system named is human PBMC. Kind of assay: IL-6 secretion by human PBMC (ELISA), with or without chloroquine. Conditions: 10 μg/ml chloroquine, 24 h, IL-6, FIG. 9. Here is the method:
Vasilakos J P et al. (2000) Cell Immunol 204:64-74. Human PBMC (n=3) were cultured for 24 h with varying concentrations of R-848 ([…]), varying concentrations of CpG ODN 2006 (0.8-6.0 μg/ml), SEB (50 ng/ml), or media alone. […] IL-6 in the supernatants was measured by ELISA. […] TLR9 is believed to have intracellular expression only.
For orientation: ELISA stands for enzyme-linked immunosorbent assay.

With CpG ODN 2006, the “activation monitored by IL-8 production” value in assay [1] and in assay [2] was “None of the stimuli used activated” in each case. Also, the “inhibition of the stimulant's activity by chloroquine (in words)” value in assay [3] is “completely abolish”.

The values above are taken from patent US20060188913A1, “Methods and products for enhancing immune responses using imidazoquinoline compounds” (University of Iowa Research Foundation, priority 2001, published 2006).
